The results in this text go back to patent US20230130823A1, “PROCESS FOR THE PRODUCTION OF ANTITUMOUR PHARMACEUTICAL COMPOSITIONS USING PUSH-PULL BUTADIENES, COMPOUNDS AND USES THEREOF” (ANHANGUERA EDUCACIONAL PARTICIPAÇÕES S/A, priority 2019, published 2023).

One series deals with CaCo2. Briefly: In vitro cytotoxicity, CaCo2 colon line. It counts as cell-based. To be noted: Homo sapiens, Caco-2; Caco2, Table 3; read-out: CI50% (the source's name).
A further series deals with HT-29. In words: In vitro cytotoxicity, HT-29 colon line. It counts as cell-based. To be noted: Homo sapiens, HT-29; HT29, Table 3; read-out: CI50% (the source's name).
The test system of another series is Colo205. In words: In vitro cytotoxicity, Colo205 colon line. To be noted: Homo sapiens, COLO 205; Colo205, Table 3; read-out: CI50% (the source's name). The series is classed as cell-based.
In a further series the test system is SW620. In words: In vitro cytotoxicity, SW620 colon line. The series is classed as cell-based. To be noted: Homo sapiens, SW-620; SW620, Table 3; read-out: CI50% (the source's name).
The test system of the next series is CRO2B. Briefly: In vitro cytotoxicity, CRO2B carcinoid line. It counts as cell-based. The conditions noted are these: Homo sapiens, Table 3, read-out: CI50% (the source's name).
For a further series, the system named is MIAP2. Briefly: In vitro cytotoxicity, MIAP2 pancreas line. The series is classed as cell-based. To be noted: Homo sapiens; MIAP2, Table 3; read-out: CI50% (the source's name).
A further series relates to BxPC3. In words: In vitro cytotoxicity, BxPC3 pancreas line. The series is classed as cell-based. The conditions noted are these: Homo sapiens, BXPC-3; BxPC3, Table 3; read-out: CI50% (the source's name).
Another series relates to PANC1. Briefly: In vitro cytotoxicity, PANC1 pancreas line. The series is classed as cell-based. The conditions noted are these: Homo sapiens, PANC-1; PANC1, Table 3; read-out: CI50% (the source's name).
Another series has as its system DLD1. Briefly: Antitumor activity, DLD1 line. The series is classed as cell-based. To be noted: Homo sapiens, DLD-1; DLD1, Table 3; read-out: CI50% (the source's name).
Series [1] relates to lines of human carcinoma tested. Briefly: In vitro cytotoxicity against the panel of human carcinoma lines. The conditions noted are these: compared with compound 6.
The test system of series [2] is 4T1 (murine mammary carcinoma). In words: Cytotoxicity, 4T1 cells. It counts as cell-based. To be noted: Mus musculus, read-out: CI50% tumor cells.
Series [3] concerns MCF-7 (human mammary adenocarcinoma). Briefly: Cytotoxicity, MCF-7 cells. The series is classed as cell-based. To be noted: MCF7, read-out: CI50% tumor cells.
Series [4] deals with SCC9 (squamous-cell carcinoma of the oral cavity). In words: Cytotoxicity, SCC9 cells. The conditions noted are these: Homo sapiens, SCC-9, read-out: CI50% tumor cells. It counts as cell-based.
For series [5], the system named is SCC25 (squamous-cell carcinoma of the oral cavity). In words: Cytotoxicity, SCC25 cells. The series is classed as cell-based. To be noted: Homo sapiens, SCC-25, read-out: CI50% tumor cells.
Series [6] concerns FN-1 (Normal human fibroblast). In words: Cytotoxicity, normal human fibroblasts. The series is classed as cell-based. The conditions noted are these: FN-1. The protocol:
Fragments of cutaneous biopsies from patients treated by the Dermatology Service of the Clinic Hospital of the Medicine School of USP were removed for routine diagnostic procedures and part of the surgical flap edge immersed in Eagle culture medium modified by Dulbecco's (DMEM, Sigma Chemical Co., St. Louis, Mo., USA) added of 10% fetal bovine serum (Cultilab Ltda., Campinas-SP), […] and 50 ng/ml amphotericin B at 4 C and kept at 4 C for a maximum of 16 hours.
The fragments were washed three times in the same solution, cut into fragments of approximately 1 mm^3 and transferred to 25 cm^2 culture flasks, kept at 37 C, humid atmosphere containing 5% CO2. Cell growth monitored daily, photo documented in inversion microscopy and culture medium exchanged every 2 or 3 days, according to cell metabolism.
After 7 days, the first change in the culture medium of the flasks was performed once cell growth started, the culture medium was renewed every three days. Plastic flasks were used for cultivation of 25 cm^2 of cultivated area, where more 3 ml of DME medium containing 10% fetal bovine serum and 1% of antibiotic-antimycotic solution will be added.
The cell viability test was performed to verify the effect of the various compounds on the various concentrations previously established: on the lines of tumor cells B16F10 and normal human fibroblasts. The MTT method consists of a cell viability test that measures the activity of mitochondrial dehydrogenase. MTT is a colorimetric method based on the capacity of living cells to reduce salt 3-(4,5-di-methylazole-2-IL)-2,5-diphenyl tetrazolium bromide in the formazan product (Mosmann, 1983). […]
The 96-well plate was read by the spectrophotometer (Spectra MAX-190) using the wavelength of 570 nm. The results were analyzed by absorbance of each well. The percentage of viability was obtained using the following formula: [(Absorbance of treated cells/Absorbance of untreated cells)×100]. […]

The test system of series [7] is HUVEC (Normal human endothelial cell). Briefly: Cytotoxicity, HUVEC normal cells.
The test system is the same in series [8].
A further series deals with NCI460. In words: Cytotoxicity, NCI460 lung line. The conditions noted are these: Homo sapiens, NCI-460, read-out: CI50 (the source's name). It counts as cell-based.
The test system of a further series is UACC62. In words: Cytotoxicity, UACC62 melanoma line. It counts as cell-based. The conditions noted are these: Homo sapiens, UACC-62, read-out: CI50 (the source's name).
The next series deals with MCF7. In words: Cytotoxicity, MCF7 breast line. It counts as cell-based. The conditions noted are these: Homo sapiens; MCF7 (breast cancer); read-out: CI50 (the source's name).
A further series deals with NCIADR. Briefly: Cytotoxicity, NCIADR multiple drug resistant ovary line. It counts as cell-based. To be noted: Homo sapiens, NCI/ADR-RES, read-out: CI50 (the source's name).

pIC50: −log10 of the molar value. Where two headings read alike, the source gives them in different places.

Consider `O=CC=C(Cl)c1ccccc1OC(=O)c1ccccc1` [Compound 5, 3-Chloro-3-(2-benzoyloxy-phenyl)propenal], for which the pIC50 with CaCo2 is 3.79; in the series on HT-29, 4.04; in the series on Colo205, 3.83; in the series on SW620 it was 3.87; with CRO2B it was 3.83; in the series with MIAP2 it was 3.81. For the same compound, the values for the pIC50 with BxPC3, with PANC1 and in the series on DLD1 were 3.80, 3.75 and 3.90, respectively. For the same compound, in series [1], the “cytotoxic activity relative to compound 6” value was “seven times lower”.

Consider `COc1ccc(/C=C/C(Cl)=C/C=O)cc1OC` [Compound 23, (4E)-3-chloro-5-(3,4-dimethoxyphenyl)penta-2,4-dienal], for which the pIC50 is 4.66 in series [2], 4.26 in [3], 4.83 in series [4] and 5.48 in series [5]. Also, the “CI50% Normal cells” value in [6] amounted to 53.33 µM; in series [7], 30.1 µM.

In the case of “5-(chloro-2-(3,4-dimethoxybenzyl)-5-(4-ethynyl-2,3,4,6-benzil-β-D-galactopyranoside)-penta-2,4-dienonitrile [Compound 21A]”, the “CI50% Normal cells” value in series [8] stood at 23.09 µM.

`CC(=O)C(=C/C=C(\Cl)c1ccc(C#C[C@@H]2O[C@H](CO)[C@@H](O)[C@H](O)[C@@H]2O)cc1)C(C)=O` [Compound 18B, 3-((Z)-3-chloro-3-(4-(2-((2S,3R,4R,5R)-tetrahydro-3,4,5-trihydroxy-6-(Hydroxymethy)-2H-pyran-2-il)ethynyl)phenyl)allilideno)pentano-2,4-dione]: the pIC50 in series [2] is 6.37; in series [4], 6.35; in [5], 6.34. In [7], this compound displayed a CI50% Normal cells of 0.293 µM.

On to `CC(=O)c1ccccc1OCC=C(C)C` [Compound 9, 2-(3-methylbut-2-enyl-oxyi)acetophenone], for which the pIC50 was 3.91 in the series on NCI460, 3.66 in the series on UACC62, 3.91 in the series with MCF7 and 4.41 in the series on NCIADR.

As for `COc1ccc(/C=C/C(Cl)=C/C=C(C(C)=O)C(C)=O)cc1OC` [Compound 24, 3-((2Z,4E)-3-chloro-5-(3,4-dimethoxyphenyl)penta-2,4-dien-ylidene)pentane-2,4-dione], the “CI50% Normal cells” value in [6] worked out at 61.80 µM; in series [7], 114 µM.
